Reference: patent US20160009693A1, “HERBICIDAL COMPOUNDS” (SYNGENTA LIMITED, priority 2013, published 2016)

What was measured:
Assay type in all cases: in vivo
Settings in all cases: applied at 1000 g/h, evaluated after 13 days
[1] = system: Alopecurus myosuroides (ALOMY); test: Herbicidal glasshouse test, pre-emergence, ALOMY
Setaria faberi (SETFA) [2] = test: Herbicidal glasshouse test, pre-emergence, SETFA
[3] = system: Echinochloa crus-galli (ECHCG); test: Herbicidal glasshouse test, pre-emergence, ECHCG
How it was run: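 In this pre-emergence glasshouse test, ECHCG seeds sown in pots of standard soil were sprayed one day after sowing with the test material in acetone/water (50:50) containing 0.5% Tween 20. Plants were kept at 24/16° C., 14 hours light, 65% humidity, and watered twice daily. Percentage damage was rated after 13 days on a 1–5 scale.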

Solanum nigrum (SOLNI) [4] = test: Herbicidal glasshouse test, pre-emergence, SOLNI
How it was run: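 This pre-emergence glasshouse herbicide test used Solanum nigrum sown in standard soil. One day after sowing, pots were sprayed with the compound in acetone/water (50:50) with 0.5% Tween 20. They were then grown at 24/16° C., with 14 hours light and 65% humidity, and watered twice daily. Percentage damage was scored after 13 days on a five point scale, where 5=80-100% and 1=0-19%.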

[5] = system: Amaranthus retoflexus (AMARE); test: Herbicidal glasshouse test, pre-emergence, AMARE
How it was run: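 This pre-emergence glasshouse herbicide test used Amaranthus retoflexus sown in standard soil. After one day of cultivation, an aqueous spray made from the technical ingredient in 50:50 acetone/water with 0.5% Tween 20 was applied. Pots stayed at 24/16° C., 14 hours light, 65% humidity, with twice-daily watering. Damage was rated on a five point scale (1=0-19% up to 5=80-100%).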

[6] = system: Ipomoea hederacea (IPOHE); test: Herbicidal glasshouse test, pre-emergence, IPOHE
[7] = system: Alopecurus myosuroides (ALOMY); test: Herbicidal glasshouse test, post-emergence, ALOMY
Setaria faberi (SETFA) [8] = test: Herbicidal glasshouse test, post-emergence, SETFA
How it was run: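 This post-emergence glasshouse herbicide test used potted Setaria faberi. Plants were cultivated for 8 days under controlled conditions (24/16° C. day/night, 14 hours light, 65% humidity) and then treated with an aqueous spray made from an acetone/water (50:50) solution containing 0.5% Tween 20. After 13 days of further growth with twice-daily watering, damage was rated on a five point scale (5=80-100%; 1=0-19%).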

[9] = system: Echinochloa crus-galli (ECHCG); test: Herbicidal glasshouse test, post-emergence, ECHCG
How it was run: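 In this post-emergence glasshouse test, barnyard grass (ECHCG) was cultivated for 8 days under controlled conditions (24/16° C. day/night, 14 hours light, 65% humidity). It was then sprayed with an aqueous solution of the technical compound in acetone / water (50:50) with 0.5% Tween 20. Plants were kept under the same conditions and watered twice daily. After 13 days, percentage damage was rated on a five point scale (5=80-100%; 1=0-19%).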

Solanum nigrum (SOLNI) [10] = test: Herbicidal glasshouse test, post-emergence, SOLNI
[11] = system: Amaranthus retoflexus (AMARE); test: Herbicidal glasshouse test, post-emergence, AMARE
How it was run: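 This post-emergence glasshouse test used AMARE plants raised in standard soil for 8 days under controlled conditions (24/16° C. day/night, 14 hours light, 65% humidity). Foliage was sprayed with formulated compound in acetone/water (50:50) containing 0.5% Tween 20. Plants were then watered twice daily, and after 13 days percentage damage was rated on a five point scale.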

[12] = system: Ipomoea hederacea (IPOHE); test: Herbicidal glasshouse test, post-emergence, IPOHE

SMILES | PRE Application ALOMY, percentage damage (five point scale) [1] | PRE Application SETFA, percentage damage (five point scale) (Setaria faberi (SETFA) [2]) | PRE Application ECHCG, percentage damage (five point scale) [3] | PRE Application SOLNI, percentage damage (five point scale) (Solanum nigrum (SOLNI) [4]) | PRE Application AMARE, percentage damage (five point scale) [5] | PRE Application IPOHE, percentage damage (five point scale) [6] | POST Application ALOMY, percentage damage (five point scale) [7] | POST Application SETFA, percentage damage (five point scale) (Setaria faberi (SETFA) [8]) | POST Application ECHCG, percentage damage (five point scale) [9] | POST Application SOLNI, percentage damage (five point scale) (Solanum nigrum (SOLNI) [10]) | POST Application AMARE, percentage damage (five point scale) [11] | POST Application IPOHE, percentage damage (five point scale) [12]
Cn1nnnc1NC(=O)c1nn(C)c(=O)n(Cc2cccc(C#N)c2)c1=O [Compound 1.054] | 5 (5=80-100%) | 4 (4=60-79%) | 5 (5=80-100%) | 5 (5=80-100%) | 5 (5=80-100%) | 5 (5=80-100%) | 5 (5=80-100%) | 4 (4=60-79%) | 5 (5=80-100%) | 5 (5=80-100%) | 5 (5=80-100%) | 5 (5=80-100%)
Cn1nnnc1NC(=O)c1nn(C)c(=O)n(Cc2ccc(F)cc2F)c1=O [Compound 1.055] | 5 (5=80-100%) | 1 (1=0-19%) | 5 (5=80-100%) | 5 (5=80-100%) | 5 (5=80-100%) | 5 (5=80-100%) | 5 (5=80-100%) | 1 (1=0-19%) | 4 (4=60-79%) | 5 (5=80-100%) | 5 (5=80-100%) | 5 (5=80-100%)
Cn1nnnc1NC(=O)c1nn(C)c(=O)n(Cc2c(F)cc(F)cc2F)c1=O [Compound 1.056] | 5 (5=80-100%) | 1 (1=0-19%) | 5 (5=80-100%) | 5 (5=80-100%) | 5 (5=80-100%) | 5 (5=80-100%) | 5 (5=80-100%) | 4 (4=60-79%) | 4 (4=60-79%) | 5 (5=80-100%) | 5 (5=80-100%) | 5 (5=80-100%)
Cn1nnnc1NC(=O)c1nn(C)c(=O)n(Cc2ccc(C(F)(F)F)cc2)c1=O [Compound 1.057] | 5 (5=80-100%) | 1 (1=0-19%) | 5 (5=80-100%) | 3 (3=40-59%) | 5 (5=80-100%) | 4 (4=60-79%) | 5 (5=80-100%) | 1 (1=0-19%) | 4 (4=60-79%) | 5 (5=80-100%) | 5 (5=80-100%) | 5 (5=80-100%)
Cn1nnnc1NC(=O)c1nn(C)c(=O)n(Cc2ccccc2F)c1=O [Compound 1.058] | 5 (5=80-100%) | 5 (5=80-100%) | 5 (5=80-100%) | 5 (5=80-100%) | 5 (5=80-100%) | 5 (5=80-100%) | 5 (5=80-100%) | 5 (5=80-100%) | 5 (5=80-100%) | 5 (5=80-100%) | 5 (5=80-100%) | 5 (5=80-100%)
